Data as given in patent US7872014B2, “Anaplastic lymphoma kinase modulators and methods of use” (Exelixis, Inc., priority 2003, dated 2011).

These molecules were tested against T1, ALK (baculovirus expressed human ALK kinase domain F1098-K1410) (Homo sapiens, UniProt Q9UM73) (assay: Luciferase-Coupled Chemiluminescent Kinase assay (LCCA), ALK biochemical activity). Settings: inhibition of ALK; mean values; 1 μM ATP, 4 μM poly-AEKY, 12 nM ALK, 2 hours ambient temperature.
T1 construct: baculovirus expressed human ALK kinase domain F1098-K1410; made in house
In short: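 Luciferase-coupled readout of ATP remaining after reaction of 12 nM ALK kinase domain with 1 μM ATP and 4 μM poly-AEKY, Tris-HCl pH 7.5 buffer with MgCl2 and MnCl2. Incubated 2 h at ambient temperature; inhibition derived from ATP consumption across serial compound dilutions.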

T1 sequence (Q9UM73 1098-1410): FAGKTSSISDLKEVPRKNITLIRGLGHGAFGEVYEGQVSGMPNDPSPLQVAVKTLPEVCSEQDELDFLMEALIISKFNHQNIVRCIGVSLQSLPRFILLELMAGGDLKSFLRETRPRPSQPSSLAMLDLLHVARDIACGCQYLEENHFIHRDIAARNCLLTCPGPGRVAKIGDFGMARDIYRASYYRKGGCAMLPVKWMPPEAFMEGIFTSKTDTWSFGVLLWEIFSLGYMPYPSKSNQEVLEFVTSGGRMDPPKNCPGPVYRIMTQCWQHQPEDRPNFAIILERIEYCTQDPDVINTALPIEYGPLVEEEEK

SMILES | IC50 [nM]
COc1cc2c(-c3ccc(O)c(C)c3)nc3[nH]nc(C)c3c2cc1OC [Example 37, 2-methyl-4-[1-methyl-7,8-bis(methyloxy)-3H-pyrazolo[3,4-c]isoquinolin-5-yl]phenol] | ≤ 99
CCN(CC)CCOc1cc2c(c(-c3ccc(O)c(Cl)c3)nc3[nH]nc(C)c32)c(F)c1OC [Example 178, 2-chloro-4-[8-{[2-(diethylamino)ethyl]oxy}-6-fluoro-1-methyl-7-(methyloxy)-3H-pyrazolo[3,4-c]isoquinolin-5-yl]phenol] | ≤ 99
COCCOc1ccc2c(-c3ccc(O)c(Br)c3)nc3[nH]nc(C)c3c2c1OCCOC [Example 111, 2-bromo-4-(1-methyl-8,9-bis{[2-(methyloxy)ethyl]oxy}-3H-pyrazolo[3,4-c]isoquinolin-5-yl)phenol] | ≤ 99
COc1cc2c(-c3ccc(O)c(Cl)c3)nc3[nH]nc(C)c3c2cc1OCC1CCCCO1 (stereo not shown) [Example 152, 2-chloro-4-{1-methyl-7-(methyloxy)-8-[(tetrahydro-2H-pyran-2-ylmethyl)oxy]-3H-pyrazolo[3,4-c]isoquinolin-5-yl}phenol] | ≤ 99
COCCOc1cc2c(cc1OC)c(-c1cc(Br)c(O)cc1F)nc1[nH]nc(C)c12 [Example 135, 2-bromo-5-fluoro-4-(1-methyl-7-(methyloxy)-8-{[2-(methyloxy)ethyl]oxy}-3H-pyrazolo[3,4-c]isoquinolin-5-yl)phenol] | ≤ 99
COc1cc2c(cc1OCC1CCNCC1)c(-c1ccc(O)cc1)nc1[nH]nc(C)c12 [Example 55, 4-{1-methyl-8-(methyloxy)-7-[(piperidin-4-ylmethyl)oxy]-3H-pyrazolo[3,4-c]isoquinolin-5-yl}phenol] | 100 to 999
COc1ccc2c(-c3ccc(O)cc3)nc3[nH]nc(C)c3c2c1C [Example 78, 4-[1,9-dimethyl-8-(methyloxy)-3H-pyrazolo[3,4-c]isoquinolin-5-yl]phenol] | ≤ 99
CCOCCOc1cc2c(cc1OC)c(-c1ccc(O)c(Cl)c1)nc1[nH]nc(C)c12 [Example 162, 2-chloro-4-[8-{[2-(ethyloxy)ethyl]oxy}-1-methyl-7-(methyloxy)-3H-pyrazolo[3,4-c]isoquinolin-5-yl]phenol] | ≤ 99
COc1ccc(-c2nc3[nH]nc(C)c3c3cc(F)c(OC)c(O)c23)cc1Cl [Example 174, 5-[3-chloro-4-(methyloxy)phenyl]-8-fluoro-1-methyl-7-(methyloxy)-3H-pyrazolo[3,4-c]isoquinolin-6-ol] | > 2000

Further lines, results first:

IC50 [nM] | SMILES
≤ 99 | COc1c(OCCN2CCOCC2)cc(F)c2c(-c3ccc(O)c(Cl)c3)nc3[nH]nc(C)c3c12 [Example 206, 2-chloro-4-{6-fluoro-1-methyl-9-(methyloxy)-8-[(2-morpholin-4-ylethyl)oxy]-3H-pyrazolo[3,4-c]isoquinolin-5-yl}phenol]
100 to 999 | COc1cc2c(-c3ccc(O)c(Cl)c3)nc3[nH]nc(C(F)(F)F)c3c2cc1OC [Example 137, 4-[7,8-bis(methyloxy)-1-(trifluoromethyl)-3H-pyrazolo[3,4-c]isoquinolin-5-yl]-2-chlorophenol]
≤ 99 | COc1c(OCCN(C)CCN(C)C)cc(F)c2c(-c3ccc(O)c(Cl)c3)nc3[nH]nc(C)c3c12 [Example 227, 2-chloro-4-[8-({2-[[2-(dimethylamino)ethyl](methyl)amino]ethyl}oxy)-6-fluoro-1-methyl-9-(methyloxy)-3H-pyrazolo[3,4-c]isoquinolin-5-yl]phenol]
≤ 99 | COc1cc2c(-c3ccc(O)cc3Cl)nc3[nH]nc(C)c3c2cc1OC [Example 96, 3-chloro-4-[1-methyl-7,8-bis(methyloxy)-3H-pyrazolo[3,4-c]isoquinolin-5-yl]phenol]
100 to 999 | Cc1n[nH]c2nc(-c3ccc(N)s3)c3c(F)cc(O)c(F)c3c12 [Example 199, 5-(5-amino-2-thienyl)-6,9-difluoro-1-methyl-3H-pyrazolo[3,4-c]isoquinolin-8-ol]
≤ 99 | Cc1n[nH]c2nc(-c3ccc(O)c(Cl)c3)c3ccccc3c12 [Example 99, 2-chloro-4-(1-methyl-3H-pyrazolo[3,4-c]isoquinolin-5-yl)phenol]
≤ 99 | COc1cc2c(c(-c3ccc(O)cc3)nc3[nH]nc(C)c32)c(OC)c1OC [Example 25, 4-[1-methyl-6,7,8-tris(methyloxy)-3H-pyrazolo[3,4-c]isoquinolin-5-yl]phenol]
≤ 99 | COc1cc(OC)c2c(-c3ccc(O)cc3)nc3[nH]nc(C)c3c2c1 [Example 31, 4-[1-methyl-6,8-bis(methyloxy)-3H-pyrazolo[3,4-c]isoquinolin-5-yl]phenol]
≤ 99 | COc1cc2c(-c3cc(Cl)c(O)cc3Cl)nc3[nH]nc(C)c3c2cc1OC [Example 85, 2,5-dichloro-4-[1-methyl-7,8-bis(methyloxy)-3H-pyrazolo[3,4-c]isoquinolin-5-yl]phenol]
≤ 99 | COc1cc2c(cc1C)c(-c1ccc(O)cc1)nc1[nH]nc(C)c12 [Example 66, 4-[1,7-dimethyl-8-(methyloxy)-3H-pyrazolo[3,4-c]isoquinolin-5-yl]phenol]
